Values of other authors in patent publication US8105627B2, “Extended release venlafaxine tablet formulation” (priority 2003, dated 2012).
Structures can show the parent of a compound that is named as a salt.

Details: plural daily dosing regimen

patients experiencing nausea: about forty five percent
patients in whom vomiting occurs: about seventeen percent
SMILES: COc1ccc(C(CN(C)C)C2(O)CCCCC2)cc1 (centres unmarked) [venlafaxine hydrochloride, 1-[(2-dimethylamino)-1-(4-methoxyphenyl)ethyl]cyclohexanol]
